Source: patent publication US10426159B1, “Highly efficient enhancers for antifreeze protein activity” (The Trustees of California State University, priority 2012, dated 2019)
“Also recorded” adds a separate entry of the source. Where two headings read alike, the source gives them in different places.

T1: Dendroides canadensis antifreeze protein DAFP-1 (SEQ. ID 1, amino acid 28 through amino acid 108) (Dendroides canadensis, UniProt O46352)
T1 construct: b42 prefers 28-108
T1 sequence (O46352 26-108): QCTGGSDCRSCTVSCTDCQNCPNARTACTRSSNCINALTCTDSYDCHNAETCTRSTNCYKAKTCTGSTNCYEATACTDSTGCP


Tests used:
[1] = tested on: DAFPs: DAFP-1, -2, -4, and -6; assay: TH enhancement by exemplified enhancers for DAFPs; type: biochemical, Dendroides canadensis
DAFP-1 = assay: Antifreeze (TH) activity measurements by differential scanning calorimetry: enhancement of TH activity of DAFP-1; type: biochemical, Dendroides canadensis; conditions: for enhancement ability for the TH activity of DAFP-1 (in words, relative) / molar enhancement effectiveness order: pH 7.5; for molar enhancement effectiveness order: FIG. 2 and FIG. 3
Text: (§1) The pH of the final samples was 7.5.

[2] = Solubility of enhancer in the TH test system; type: physicochemical
Text: as §1

[3] = target: T1, Dendroides canadensis antifreeze protein DAFP-1 (SEQ. ID 1, amino acid 28 through amino acid 108); assay: Size-exclusion HPLC (Hummel and Dreyer gel filtration method) of NADH binding to DAFP-1; conditions: pH 7.00, ambient temperature, DAFP-1 1.5-20 μM, NADH 0-270 μM, nonlinear regression
Method: The formation of 1:1 complex of DAFP-1 and NADH was further confirmed by HPLC analysis. With the gel filtration method of Hummel and Dreyer, the size exclusion column can be equilibrated with a buffer containing the ligand at a known concentration. The protein sample prepared in the buffer (containing the ligand at the same concentration) is injected into the equilibrated column. If binding occurs, the concentrations of the ligand in the elution buffer and in the elution are usually different. […] The bound ligand can be determined more precisely using the internal calibration method. […]
The binding of NADH to DAFP-1 was characterized using HPLC by an improved gel filtration method of Hummel and Dreyer (Hummel and Dreyer, 1962; Parsons, 1980). […] The eluates were monitored at 220 nm. […] The initial concentrations of NADH were determined using the molar extinction coefficient (ε340=6.22×10^3M^−1cm^−1) (Dawson et al., 1985). […] The amount of bound NADH was determined by the internal calibration method (Parsons 1980; Sun and Hsiao, 1993). The amount of free NADH is obtained fromthe difference of total NADH and calculated bound NADH. […]

Molecule	enhancement ability for the TH activity of DAFP-1 (in words, relative) (DAFP-1; DSC, DAFP-1 453 μM)	molar enhancement effectiveness order (DAFP-1; DSC, DAFP-1 453 μM)	other results
O=C[C@H](F)[C@@H](O)[C@H](O)[C@H](O)CO [2-fluoro-2-deoxy-D-glucose]			increase of the TH activity of DAFPs [1]: 2 fold
O=c1[nH]c(=O)n([C@@H]2O[C@H](CO)[C@@H](O)[C@H]2O)cc1F [5-Fluorouridine]			increase of the TH activity of DAFPs [1]: 2 fold
Nc1ncnc2c1ncn2[C@@H]1O[C@H](COP(=O)(O)OP(=O)(O)O)[C@@H](O)[C@H]1O [ADP, adenosine 5′-diphosphate]	less than that of ADPR; also recorded: lower than that of AMP		
Nc1ncnc2c1ncn2[C@@H]1O[C@H](COP(=O)(O)OP(=O)(O)OC[C@H]2OC(O)[C@H](O)[C@@H]2O)[C@@H](O)[C@H]1O (stereo partly shown) [ADPR, adenosine 5′-diphosphoribose]	most efficient enhancement ability among these fragments	ADPR>AMP>adenosine>R5P>pyrophosphate>ribose	
Nc1ncnc2c1ncn2[C@@H]1O[C@H](COP(=O)(O)O)[C@@H](O)[C@H]1O [AMP, (−)-adenosine 5′-monophosphate]		ADPR>AMP>adenosine>R5P>pyrophosphate>ribose	
Nc1ncnc2c1ncn2[C@@H]1O[C@H](COP(=O)(O)OP(=O)(O)OP(=O)(O)O)[C@@H](O)[C@H]1O [ATP]			increase of the TH activity of DAFPs [1]: at least 5 fold
CC(C)(COP(=O)(O)OP(=O)(O)OC[C@H]1O[C@@H](n2cnc3c(N)ncnc32)[C@H](O)[C@@H]1OP(=O)(O)O)[C@@H](O)C(=O)NCCC(=O)NCCS [CoA, coenzyme A]	less than those of NADH and NAD analogs		
Cc1cc2nc3c(=O)[nH]c(=O)nc-3n(C[C@H](O)[C@H](O)[C@H](O)COP(=O)(O)OP(=O)(O)OC[C@H]3O[C@@H](n4cnc5c(N)ncnc54)[C@H](O)[C@@H]3O)c2cc1C [FAD, flavin adenine dinucleotide]	less than those of NADH and NAD analogs		solubility (in words) [2]: limited by its solubility
NC(=O)c1ccc[n+]([C@@H]2O[C@H](COP(=O)([O-])OP(=O)(O)OC[C@H]3O[C@@H](n4cnc5c(N)ncnc54)[C@H](O)[C@@H]3O)[C@@H](O)[C@H]2O)c1 [NAD, (3-nicotinamide adenine dinucleotide]	very similar to that of its reduced form, NADH, although slightly lower	NADH>NAD>TNAD>PAAD	
NC(=O)C1=CN([C@@H]2O[C@H](COP(=O)(O)OP(=O)(O)OC[C@H]3O[C@@H](n4cnc5c(N)ncnc54)[C@H](O)[C@@H]3O)[C@@H](O)[C@H]2O)C=CC1 [NADH, (3-nicotinamide adenine dinucleotide, reduced]		NADH>NAD>TNAD>PAAD	Kd [3]: 280 ± 20 nM
NC(=O)C1=CN([C@@H]2O[C@H](COP(=O)(O)OP(=O)(O)OC[C@H]3O[C@@H](n4cnc5c(N)ncnc54)[C@H](OP(=O)(O)O)[C@@H]3O)[C@@H](O)[C@H]2O)C=CC1 [NADPH, (3-nicotinamide adenine dinucleotide phosphate, reduced]	most efficient enhancer; also recorded: much higher than any of the known enhancers		
Nc1ncnc2c1ncn2C1OC(COP(=O)(O)OP(=O)(O)OCC2OC([n+]3cccc(C=O)c3)C(O)C2O)C(O)C1O (stereo not shown) [PAAD, 3-pyridine aldehyde adenine dinucleotide]	very efficient enhancement ability; also recorded: least effective enhancer among the analogs	NADH>NAD>TNAD>PAAD	
O=C[C@H](O)[C@H](O)[C@H](O)COP(=O)(O)O [R5P, D-ribose-5-phosphate]		ADPR>AMP>adenosine>R5P>pyrophosphate>ribose	
NC(=S)c1ccc[n+]([C@@H]2O[C@H](COP(=O)([O-])OP(=O)(O)OC[C@H]3O[C@@H](n4cnc5c(N)ncnc54)[C@H](O)[C@@H]3O)[C@@H](O)[C@H]2O)c1 [TNAD, thionicotinamide adenine dinucleotide]	very efficient enhancement ability	NADH>NAD>TNAD>PAAD	
Nc1ncnc2c1ncn2[C@@H]1O[C@H](CO)[C@@H](O)[C@H]1O [adenosine]		ADPR>AMP>adenosine>R5P>pyrophosphate>ribose	solubility (in words) ([2]; TH test system): low solubility; enhancement ability for the TH activity of DAFP-1 at 0.080M (DAFP-1; enhancer 0.080M): lower than that of ADP
O=P(O)(O)OP(=O)(O)O [pyrophosphate]		ADPR>AMP>adenosine>R5P>pyrophosphate>ribose	
O=C[C@H](O)[C@H](O)[C@H](O)CO [ribose, D-(−)-ribose]	least enhancement	ADPR>AMP>adenosine>R5P>pyrophosphate>ribose	
DAFP-1: Dendroides canadensis antifreeze protein, recombinantly expressed in E. coli; SEQ. ID 1 amino acids 28 through 108 (protein, listed as Dendroides canadensis, Dendroides canadensis antifreeze protein, recombinantly expressed in E. coli; ID 1 amino acids 28 through 108) TGGSDCRSCTVSCTDCQNCPNARTACTRSSNCINALTCTDSYDCHNAETCTRSTNCYKAKTCTGSTNCYEATACTDSTGCP			TH activity of the protein sample alone (DAFP-1; DAFP-1 453 μM, no enhancer, DSC): 0.69±0.01 °C; TH activity of DAFP-1 as a function of pH (DAFP-1; pH 2 to pH 12): unchanged
